What all share (assay type): cell-based
The target in test [1] is T1, GLP-1 receptor (Homo sapiens, UniProt P43220).
T1 construct: expressed in transfected cells; host or cells: HEK293
Nature of the test: cAMP induction, firefly luciferase reporter assay in HEK293 cells co-transfected with the GLP-1 receptor. As to conditions: HEK293 cells, cAMP-responsive luciferase reporter, 5 hours incubation. Here is the method: (§1) The ability of each peptide to induce cAMP was measured in a firefly luciferase-based reporter assay. […] At the end of the incubation, 100 μL of LucLite luminescence substrate reagent (Perkin Elmer, Wellesley, Mass.) were added to each well. […] In some instances, the in vitro agonist activity at the GIP receptor was also tested.

Test [2] deals with T2, glucagon receptor (Homo sapiens, UniProt P47871).
T2 construct: expressed in transfected cells; host or cells: HEK293
T2 sequence (P47871 26-477, species assumed): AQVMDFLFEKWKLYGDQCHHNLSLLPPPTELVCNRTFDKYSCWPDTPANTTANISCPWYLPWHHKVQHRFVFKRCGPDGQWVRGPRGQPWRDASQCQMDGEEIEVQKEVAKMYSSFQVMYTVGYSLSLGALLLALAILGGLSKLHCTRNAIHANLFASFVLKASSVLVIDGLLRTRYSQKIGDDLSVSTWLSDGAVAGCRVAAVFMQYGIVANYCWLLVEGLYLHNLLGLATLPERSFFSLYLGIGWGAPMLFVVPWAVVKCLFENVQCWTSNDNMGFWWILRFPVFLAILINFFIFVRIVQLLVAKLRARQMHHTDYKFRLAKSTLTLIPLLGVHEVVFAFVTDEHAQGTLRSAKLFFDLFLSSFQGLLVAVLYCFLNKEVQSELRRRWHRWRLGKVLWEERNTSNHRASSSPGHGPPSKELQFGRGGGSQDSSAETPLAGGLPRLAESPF
Nature of the test: cAMP induction, firefly luciferase reporter assay in HEK293 cells co-transfected with the glucagon receptor. The conditions noted are these: HEK293 cells, cAMP-responsive luciferase reporter, 5 hours incubation. On the procedure:
as §1

Test [3] has as its target T3, GIP receptor (Homo sapiens, UniProt P48546).
T3 construct: expressed in transfected cells; host or cells: HEK293
T3 sequence (P48546 22-466): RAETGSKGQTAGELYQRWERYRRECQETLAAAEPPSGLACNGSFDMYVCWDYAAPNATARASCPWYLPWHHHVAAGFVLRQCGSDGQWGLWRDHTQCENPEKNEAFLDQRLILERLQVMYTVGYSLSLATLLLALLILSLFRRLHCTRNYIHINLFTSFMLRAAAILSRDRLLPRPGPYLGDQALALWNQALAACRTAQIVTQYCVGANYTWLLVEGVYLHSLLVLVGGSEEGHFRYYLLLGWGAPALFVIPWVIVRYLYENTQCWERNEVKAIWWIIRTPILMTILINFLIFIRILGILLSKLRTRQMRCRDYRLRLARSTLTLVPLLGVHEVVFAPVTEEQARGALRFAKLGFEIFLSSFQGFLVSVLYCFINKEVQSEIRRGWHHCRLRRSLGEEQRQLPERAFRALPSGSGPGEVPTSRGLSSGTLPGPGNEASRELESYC
Nature of the test: in vitro agonist activity at the GIP receptor (cAMP luciferase reporter, HEK293 cells). As to conditions: in vitro agonist activity; read-out: EC50 (nM) at GIP receptor. Here is the method: It is understood that a lower EC50 indicates higher activity or potency at the receptor. […] The ability of each peptide to induce cAMP was measured in a firefly luciferase-based reporter assay. […] At the end of the incubation, 100 μL of LucLite luminescence substrate reagent (Perkin Elmer, Wellesley, Mass.) were added to each well. […] In some instances, the in vitro agonist activity at the GIP receptor was also tested.

Each structure is given as a SMILES string. Numbered stars: 1 amine (or outer) side, 2 acyl side, 3 side chain; on linkers, the order of the positions; unused ones are H or OH. Square brackets hold non-standard residues; d marks the D form. Side chains are listed from the residue outwards. Peptide text beside a SMILES is read from it. * marks the point of attachment. γGlu = O=C(O)[C@H](CCC(=O)[*:2])N[*:1]; Palmitoyl = CCCCCCCCCCCCCCCC(=O)*; Aib = CC(C)(N)C(=O)O

T1 sequence (P43220 24-463): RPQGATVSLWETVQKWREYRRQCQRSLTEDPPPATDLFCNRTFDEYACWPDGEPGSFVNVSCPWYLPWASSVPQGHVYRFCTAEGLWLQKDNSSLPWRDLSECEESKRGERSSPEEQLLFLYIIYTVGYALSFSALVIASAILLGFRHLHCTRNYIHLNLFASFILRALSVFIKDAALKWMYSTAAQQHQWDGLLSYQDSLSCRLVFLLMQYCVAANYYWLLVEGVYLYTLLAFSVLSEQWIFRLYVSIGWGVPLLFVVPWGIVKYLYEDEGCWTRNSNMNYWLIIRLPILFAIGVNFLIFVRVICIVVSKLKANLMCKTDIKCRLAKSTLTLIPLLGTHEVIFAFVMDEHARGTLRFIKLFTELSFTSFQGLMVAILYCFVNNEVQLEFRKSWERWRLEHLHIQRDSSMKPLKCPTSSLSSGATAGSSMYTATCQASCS

Take `CCCCCCCCCCCCCCCC(=O)N[C@@H](CCC(=O)NCCCC[C@H](NC(=O)[C@H](CC(=O)O)NC(=O)[C@H](CO)NC(=O)[C@@H](NC(=O)[C@H](Cc1ccccc1)NC(=O)[C@@H](NC(=O)CNC(=O)[C@H](CCC(N)=O)NC(=O)C(C)(C)NC(=O)[C@@H](N)Cc1c[nH]cn1)[C@@H](C)O)[C@@H](C)O)C(=O)N[C@@H](CO)C(=O)N[C@@H](CCCCN)C(=O)N[C@@H](Cc1ccc(O)cc1)C(=O)N[C@@H](CC(C)C)C(=O)N[C@@H](CC(=O)O)C(=O)NC(C)(C)C(=O)N[C@@H](CCCNC(=N)N)C(=O)N[C@@H](C)C(=O)N[C@@H](C)C(=O)N[C@@H](CCC(N)=O)C(=O)N[C@@H](CC(=O)O)C(=O)N[C@@H](Cc1ccccc1)C(=O)N[C@H](C(=O)N[C@@H](CCC(N)=O)C(=O)N[C@@H](Cc1c[nH]c2ccccc12)C(=O)N[C@@H](CC(C)C)C(=O)N[C@@H](CCSC)C(=O)N[C@@H](CCCCN)C(=O)N[C@H](C(=O)N[C@@H](CCCCN)C(=O)N[C@H](CCC(=O)O)C(=O)O)[C@@H](C)O)C(C)C)C(=O)O` [compound 60] (H-H[Aib]QGTFTSDK([γGlu-Palmitoyl])SKYLD[Aib]RAAQDFVQWLMKTK[dE]-OH; N-terminus assumed): the EC50 in test [1] amounted to 0.033 nM; in test [2], 4.6 nM; in test [3], 147 nM.
Regarding `CCCCCCCCCCCCCCCC(=O)NCCCC[C@H](NC(=O)[C@H](CC(=O)O)NC(=O)[C@H](CO)NC(=O)[C@@H](NC(=O)[C@H](Cc1ccccc1)NC(=O)[C@@H](NC(=O)CNC(=O)[C@H](CCC(N)=O)NC(=O)C(C)(C)NC(=O)[C@@H](N)Cc1c[nH]cn1)[C@@H](C)O)[C@@H](C)O)C(=O)N[C@@H](CO)C(=O)N[C@@H](CCCCN)C(=O)N[C@@H](Cc1ccc(O)cc1)C(=O)N[C@@H](CC(C)C)C(=O)N[C@@H](CC(=O)O)C(=O)N[C@@H](CCC(=O)O)C(=O)N[C@@H](CCCNC(=N)N)C(=O)N[C@@H](CCCNC(=N)N)C(=O)N[C@@H](C)C(=O)NC(C)(C)C(=O)N[C@@H](CC(=O)O)C(=O)N[C@@H](Cc1ccccc1)C(=O)N[C@H](C(=O)N[C@@H](CCC(N)=O)C(=O)N[C@@H](Cc1c[nH]c2ccccc12)C(=O)N[C@@H](CC(C)C)C(=O)N[C@@H](CCSC)C(=O)N[C@@H](CC(N)=O)C(=O)N[C@H](C(N)=O)[C@@H](C)O)C(C)C` [compound 59] (H-H[Aib]QGTFTSDK(Palmitoyl)SKYLDERRA[Aib]DFVQWLMNT-NH2), the values for the concentration for a half-maximal effect (EC50) in test [1], in test [2] and in test [3] were 0.01 nM, 0.051 nM and 7.48 nM, respectively.
For the molecule `CCCCCCCCCCCCCCCC(=O)N[C@@H](CCC(=O)NCCCC[C@H](NC(=O)[C@H](CC(=O)O)NC(=O)[C@H](CO)NC(=O)[C@@H](NC(=O)[C@H](Cc1ccccc1)NC(=O)[C@@H](NC(=O)CNC(=O)[C@H](CCC(N)=O)NC(=O)[C@@H](CO)NC(=O)CCc1c[nH]cn1)[C@@H](C)O)[C@@H](C)O)C(=O)N[C@@H](CO)C(=O)N[C@@H](CCCCN)C(=O)N[C@@H](Cc1ccc(O)cc1)C(=O)N[C@@H](CC(C)C)C(=O)N[C@@H](CC(=O)O)C(=O)N[C@@H](CCC(=O)O)C(=O)N[C@@H](CCCNC(=N)N)C(=O)N[C@@H](C)C(=O)N[C@@H](C)C(=O)N[C@@H](CCC(N)=O)C(=O)N[C@@H](CC(=O)O)C(=O)N[C@@H](Cc1ccccc1)C(=O)N[C@H](C(=O)N[C@@H](CCC(N)=O)C(=O)N[C@@H](Cc1c[nH]c2ccccc12)C(=O)N[C@@H](CC(C)C)C(=O)N[C@@H](CC(C)C)C(=O)N[C@@H](CC(=O)O)C(=O)N[C@H](C(N)=O)[C@@H](C)O)C(C)C)C(=O)O` [compound 20], the EC50 in test [1] is 0.004 nM; in test [2], 0.006 nM; in test [3] it was 1.38 nM.
For `CCCCCCCCCCCCCCCC(=O)N[C@@H](CCC(=O)NCCCC[C@H](NC(=O)[C@H](CC(=O)O)NC(=O)[C@H](CO)NC(=O)[C@@H](NC(=O)[C@H](Cc1ccccc1)NC(=O)[C@@H](NC(=O)CNC(=O)[C@H](CCC(N)=O)NC(=O)C(C)(C)NC(=O)[C@@H](N)Cc1c[nH]cn1)[C@@H](C)O)[C@@H](C)O)C(=O)N[C@@H](CO)C(=O)N[C@@H](CCCCN)C(=O)N[C@@H](Cc1ccc(O)cc1)C(=O)N[C@@H](CC(C)C)C(=O)N[C@@H](CC(=O)O)C(=O)NC(C)(C)C(=O)N[C@@H](CCCNC(=N)N)C(=O)N[C@@H](C)C(=O)N[C@@H](C)C(=O)N[C@@H](CCC(N)=O)C(=O)N[C@@H](CC(=O)O)C(=O)N[C@@H](Cc1ccccc1)C(=O)N[C@H](C(=O)N[C@@H](CCC(N)=O)C(=O)N[C@@H](Cc1c[nH]c2ccccc12)C(=O)N[C@@H](CC(C)C)C(=O)N[C@@H](CC(C)C)C(=O)N[C@@H](CC(=O)O)C(=O)NCC(=O)N[C@@H](CCCNC(=N)N)C(=O)NCC(N)=O)C(C)C)C(=O)O` [compound 30] (H-H[Aib]QGTFTSDK([γGlu-Palmitoyl])SKYLD[Aib]RAAQDFVQWLLDGRG-NH2), in that order: 0.0082 nM, 0.933 nM and 9.06 nM.
For the molecule `CCCCCCCCCCCCCCCC(=O)N[C@@H](CCC(=O)N[C@@H](CCC(=O)NCCCC[C@H](NC(=O)[C@H](CC(=O)O)NC(=O)[C@H](CO)NC(=O)[C@@H](NC(=O)[C@H](Cc1ccccc1)NC(=O)[C@@H](NC(=O)CNC(=O)[C@H](CCC(N)=O)NC(=O)C(C)(C)NC(=O)[C@@H](N)Cc1c[nH]cn1)[C@@H](C)O)[C@@H](C)O)C(=O)N[C@@H](CO)C(=O)N[C@@H](CCCCN)C(=O)N[C@@H](Cc1ccc(O)cc1)C(=O)N[C@@H](CC(C)C)C(=O)N[C@@H](CC(=O)O)C(=O)NC(C)(C)C(=O)N[C@@H](CCCNC(=N)N)C(=O)N[C@@H](C)C(=O)N[C@@H](C)C(=O)N[C@@H](CCC(N)=O)C(=O)N[C@@H](CC(=O)O)C(=O)N[C@@H](Cc1ccccc1)C(=O)N[C@H](C(=O)N[C@@H](CCC(N)=O)C(=O)N[C@@H](Cc1c[nH]c2ccccc12)C(=O)N[C@@H](CC(C)C)C(=O)N[C@@H](CCSC)C(=O)N[C@@H](CC(=O)O)C(=O)NCC(=O)N[C@@H](CCCNC(=N)N)C(=O)NCC(N)=O)C(C)C)C(=O)O)C(=O)O` [compound 22] (H-H[Aib]QGTFTSDK([γGlu-γGlu-Palmitoyl])SKYLD[Aib]RAAQDFVQWLMDGRG-NH2; N-terminus assumed), the 50% effective concentration (EC50) in test [1] is 0.002 nM; in test [2], 0.005 nM; in test [3], 2.37 nM.
On to `CCCCCCCCCCCCCCCC(=O)N[C@@H](CCC(=O)N[C@@H](CCC(=O)NCCCC[C@H](NC(=O)[C@H](CC(=O)O)NC(=O)[C@H](CO)NC(=O)[C@@H](NC(=O)[C@H](Cc1ccccc1)NC(=O)[C@@H](NC(=O)CNC(=O)[C@H](CCC(N)=O)NC(=O)C(C)(C)NC(=O)[C@@H](N)Cc1c[nH]cn1)[C@@H](C)O)[C@@H](C)O)C(=O)N[C@@H](CO)C(=O)N[C@@H](CCCCN)C(=O)N[C@@H](Cc1ccc(O)cc1)C(=O)N[C@@H](CC(C)C)C(=O)N[C@@H](CC(=O)O)C(=O)NC(C)(C)C(=O)N[C@@H](CCCNC(=N)N)C(=O)N[C@@H](C)C(=O)N[C@@H](C)C(=O)N[C@@H](CCC(N)=O)C(=O)N[C@@H](CC(=O)O)C(=O)N[C@@H](Cc1ccccc1)C(=O)N[C@H](C(=O)N[C@@H](CCC(N)=O)C(=O)N[C@@H](Cc1c[nH]c2ccccc12)C(=O)N[C@@H](CC(C)C)C(=O)N[C@@H](CCSC)C(=O)N[C@@H](CC(=O)O)C(=O)N[C@H](C(=O)N[C@@H](CCCCN)C(=O)N[C@H](C)C(=O)O)[C@@H](C)O)C(C)C)C(=O)O)C(=O)O` [compound 32] (H-H[Aib]QGTFTSDK([γGlu-γGlu-Palmitoyl])SKYLD[Aib]RAAQDFVQWLMDTK[dA]-OH), for which the EC50 came to 0.008 nM in test [1], 0.007 nM in test [2] and 2.08 nM in test [3].
For `CCCCCCCCCCCCCCCC(=O)N[C@@H](CCC(=O)NCCCC[C@H](NC(=O)[C@H](CC(=O)O)NC(=O)[C@H](CO)NC(=O)[C@@H](NC(=O)[C@H](Cc1ccccc1)NC(=O)[C@@H](NC(=O)CNC(=O)[C@H](CCC(N)=O)NC(=O)[C@@H](CO)NC(=O)[C@@H](N)Cc1c[nH]cn1)[C@@H](C)O)[C@@H](C)O)C(=O)N[C@@H](CO)C(=O)N[C@@H](CCCCN)C(=O)N[C@@H](Cc1ccc(O)cc1)C(=O)N[C@@H](CC(C)C)C(=O)N[C@@H](CC(=O)O)C(=O)N[C@@H](CCC(=O)O)C(=O)N[C@@H](CCCNC(=N)N)C(=O)N[C@@H](C)C(=O)N[C@@H](C)C(=O)N[C@@H](CCC(N)=O)C(=O)N[C@@H](CC(=O)O)C(=O)N[C@@H](Cc1ccccc1)C(=O)N[C@H](C(=O)N[C@@H](CCC(N)=O)C(=O)N[C@@H](Cc1c[nH]c2ccccc12)C(=O)N[C@@H](CC(C)C)C(=O)N[C@@H](CC(C)C)C(=O)N[C@@H](CCCCN)C(=O)NCC(=O)N[C@@H](CCCNC(=N)N)C(=O)NCC(N)=O)C(C)C)C(=O)O` [compound 27], in that order: 0.005 nM, 0.022 nM and 2.12 nM.
